Test results: US20220400679A1, “COMPOSITION FOR ENHANCING PLANT GROWTH” (CH Biotech R&D Co., Ltd., priority 2021, published 2022)

How the values were obtained:
[1] = tested on: Glyphosate-tolerant soybean plants (S29RY05); experiment: Example 3 content of plant hormones, soybean; assay type: in vivo; settings: with glyphosate treatment (4.87 g/L), 12 days after application, N = 3
Experimental: (§1) One seed was seeded in one pot.
(§2) 2.8 Content of Plant Hormones: Twelve (12) days after the application of reagents, 1 g of fresh sample leaf was ground in liquid nitrogen and then mixed with 10 g extraction solution (80% (v/v) methanol, 1% (v/v) acetic acid) by a vortex mixer. The sample was then sonicated for 1 hour and centrifuged at 2,500 rpm for 10 minutes. The supernatant was collected, concentrated, dissolved in 1 ml of 100% methanol, and then analyzed for content of plant hormones with a tandem quadrupole mass spectrometer (Waters® Xevo® TQ MS, Waters Corporation, Milford, Mass., USA) and ACQUITY UPLC System (Waters Corporation, Milford, Mass., USA).

[2] = tested on: Glyphosate-tolerant corn plants (D40SS48); experiment: Example 1 synergistic test with glyphosate: shoot dry weight, corn; assay type: in vivo; settings: 7 days after application, glyphosate 4.87 g/L vs Control group (p<0.01), FIG. 1A
Experimental: as §1
(§3) 2.1 Shoot dry weight: Seven (7) days after the application of reagents, leaves and stems of each plant were dried at 50° C. overnight, and then the dry weight was measured.
(§4) 2.2 Statistics: Unpaired Student's t-test was applied to assess numerical data statistical significance. Statistical significance was set at p-value less than 0.05.

[3] = tested on: glutamine synthetase (GS) of corn plants; experiment: Example 3 activity of glutamine synthetase, corn; assay type: in vivo; settings: 3 days after application, glyphosate vs Control group, FIG. 9
Experimental: as §1
(§5) The leaf powder and 1 ml of extraction solution, containing 10 mM Tris-HCl (pH7.6), 1 mM MgCl2, 1 mM EDTA, and 10 mM 2-Mercaptoethanol, were centrifuged at 4° C., 13,000 rcf for 30 minutes. […] The sample was centrifuged at room temperature, 3,000 rcf. Absorbance at an O.D. of 540 nm (A540) of the supernatant was measured.

[4] = tested on: glutamate synthase (GOGAT) of soybean plants; experiment: Example 3 activity of glutamate synthase, soybean; assay type: in vivo; settings: 3 days after application, glyphosate vs Control group, FIG. 17
Experimental: as §1
(§6) The leaf powder and 1 ml of extraction solution, containing 10 mM Tris-HCl (pH7.6), 1 mM MgCl2, 1 mM EDTA, and 10 mM 2-Mercaptoethanol, were centrifuged at 4° C., 13,000 rcf for 30 minutes. Zero-point-one-five (0.15) ml of the supernatant was mixed with the reaction solution containing 0.2 mL of 20 mM L-glutamine, 0.25 mL of 2 mM 2-oxoglutarate, 0.05 mL of 10 mM KCl, 1 mL of 25 mM Tris-HCl (pH7.6), and 0.1 mL 3 mM NADH to initiate the reaction. The GOGAT activity is determined by NADH reduction through measuring fluorescence intensity at excitation/emission wavelengths of 340/445 nm. NADH concentration is determined by reference to a NADH standard curve.

[5] = tested on: Glyphosate-tolerant soybean plants (S29RY05); experiment: Example 1 synergistic test with glyphosate: shoot dry weight, soybean; assay type: in vivo; settings: 7 days after application, glyphosate 4.87 g/L vs Control group (p<0.01), FIG. 2A
Experimental: as §1, §3, §4

[6] = tested on: glutamine synthetase (GS) of soybean plants; experiment: Example 3 activity of glutamine synthetase, soybean; assay type: in vivo; settings: 3 days after application, glyphosate vs Control group, FIG. 16
Experimental: as §1, §5

[7] = tested on: Glyphosate-tolerant corn plants (D40SS48); experiment: Example 3 content of TBARS, corn; settings: 3 days after application, glyphosate vs Control group, FIG. 7
[8] = tested on: Glyphosate-tolerant corn plants (D40SS48); experiment: Example 3 electrolyte leakage, corn; assay type: in vivo; settings: 3 days after application, glyphosate vs Control group, FIG. 6
Experimental: as §1
(§7) Six (6) leaf disks (7.5 mm diameter) were cut from the sample leaves and immersed in 10 ml of deionized water at 25° C. for 24 hours. After that, the first electrolytic conductivity (EC1) of the sample solution was analyzed with an electrical conductivity meter (SevenCompact™ 5230 Conductivity Meter, Mettler-Toledo, Columbus, Ohio, USA). The sample leaf disks were then kept in the deionized water at 95° C. for 2 hours. After the temperature of the sample solution decreased to 25° C., the second electrolytic conductivity (EC2) of the sample solution was analyzed with the electrical conductivity meter again. Ten (10) milliliters of deionized water without any sample were used as control. Electrolyte leakage of the sample leaves was analyzed with the following equation.
(§8) Electrolyte leakage (%)=(Sample EC1−Control EC1)×100/(Sample EC2−Control EC2)

[9] = tested on: nitrate reductase (NR) of soybean plants; experiment: Example 3 activity of nitrate reductase, soybean; assay type: in vivo; settings: 3 days after application, glyphosate vs Control group, FIG. 15
Experimental: as §1
(§9) One (1) ml of potassium phosphate buffer (100 mM, pH7.4) containing 7.5 mM cysteine, 1 mM EDTA, and 1.5% casein was added to the sample, mixed with the sample, and then the mixed sample was centrifuged at 4° C., 13,000 relative centrifugal field (rcf) for 30 minutes. […] The sample was centrifuged at room temperature, 3,000 rcf. The supernatant was transferred to a new tube and mixed with 0.5 mL sulphanilamide (5.8 mM) and 0.5 mL N-(1-naphthyl)ethylenediamine (0.8 mM). The mixture was incubated for 30 minutes. […] KNO2 is used as a NO2^− concentration standard.

[10] = tested on: glutamate synthase (GOGAT) of corn plants; experiment: Example 3 activity of glutamate synthase, corn; assay type: in vivo; settings: 3 days after application, glyphosate vs Control group, FIG. 10
Experimental: as §1, §6

[11] = tested on: Glyphosate-tolerant soybean plants (S29RY05); experiment: Example 2 different concentrations of components with glyphosate: shoot dry weight, soybean; assay type: in vivo; settings: glyphosate 4.87 g/L vs Control group (p<0.01), FIG. 4A
Experimental: as §3, §1
(§10) Methods for analyzing shoot dry weight and statistics are the same as described in Example 1.

[12] = tested on: Glyphosate-tolerant corn plants (D40SS48); experiment: Example 2 different concentrations of components with glyphosate: shoot dry weight, corn; assay type: in vivo; settings: glyphosate 4.87 g/L vs Control group (p<0.01), FIG. 3A
Experimental: as §3, §1, §10

[13] = tested on: Glyphosate-tolerant soybean plants (S29RY05); experiment: Example 3 electrolyte leakage, soybean; assay type: in vivo; settings: 3 days after application, glyphosate vs Control group, FIG. 13
Experimental: as §1, §7, §8

[14] = tested on: Glyphosate-tolerant soybean plants (S29RY05); experiment: Example 3 analyses of leaves and roots (growth) after glyphosate treatment, soybean; assay type: in vivo; settings: 7 days after application, glyphosate 4.87 g/L
Experimental: as §1
(§11) 2.1 Analyses of Leaves: Seven (7) days after the application of reagents, plant height was measured, and leaves were collected. The leaf area of the fourth leaf of each corn plant and the total leaf area of each soybean plant were measured by a leaf analyzer (WinFOLIA™ Regent Instruments Inc., Québec, Canada). Leaves and stems of each plant were dried at 50° C. overnight, and then the dry weight was measured.
(§12) 2.2 Analyses of Roots: Seven (7) days after the application of reagents, length of plant root was measured by a root analyzer (WinRHIZO™, Regent Instruments Inc., Québec, Canada). In addition, roots of each plant were dried at 50° C. overnight, and then the dry weight was measured.

[15] = tested on: nitrate reductase (NR) of corn plants; experiment: Example 3 activity of nitrate reductase, corn; assay type: in vivo; settings: 3 days after application, glyphosate vs Control group, FIG. 8
Experimental: as §1, §9

[16] = tested on: Glyphosate-tolerant soybean plants (S29RY05); experiment: Example 3 content of TBARS, soybean; settings: 3 days after application, glyphosate vs Control group, FIG. 14
[17] = tested on: Glyphosate-tolerant corn plants (D40SS48); experiment: Example 3 content of plant hormones, corn; assay type: in vivo; settings: with glyphosate treatment (4.87 g/L), 12 days after application, N = 3
Experimental: as §1, §2

[18] = tested on: Glyphosate-tolerant corn plants (D40SS48); experiment: Example 3 analyses of leaves and roots (growth) after glyphosate treatment, corn; assay type: in vivo; settings: 7 days after application, glyphosate 4.87 g/L, N = 10
Experimental: as §1, §11, §12

In the case of `O=C(O)CNCP(=O)(O)O` [Glyphosate only, glyphosate], the “Phytohormone content: ABA” value [1] is reported as 1189 ng/g FW, the “Phytohormone content: Cytokinin (Zeatin+iPAs)” value [1] is reported as 0.68 ng/g FW and the “Phytohormone content: GA1” value [1] is reported as 832 ng/g FW. The “Phytohormone content: IAA” value [1] was 28 ng/g FW, the shoot dry weight [2] was “significant decrease in shoot dry weight” and the “activities of glutamine synthetase (GS)” value [3] was “decrease in activities”. The “activities of glutamate synthase (GOGAT)” value [4] was “decrease in activities”, the shoot dry weight [5] was “significant decrease in shoot dry weight” and the “activities of glutamine synthetase (GS)” value [6] was “decrease in activities”. The TBARS level [7] was “increase in TBARS level”, the electrolyte leakage [8] was “increase in electrolyte leakage” and the “activities of nitrate reductase (NR)” value [9] was “decrease in activities”. For the same compound, the “activities of glutamate synthase (GOGAT)” value [10] was “decrease in activities”, the shoot dry weight [11] was “significant decrease in shoot dry weight” and the shoot dry weight [12] was “significant decrease in shoot dry weight”. The electrolyte leakage [13] was “increase in electrolyte leakage”, the “leaf curling symptoms (phenotype observation of soybean leaves)” value ([14]; FIG. 12) was “causes leaf curling symptoms” and the “necrotic areas (phenotype observation of soybean leaves)” value ([14]; FIG. 12) was “necrotic areas”. For the same compound, the Root dry weight ([14]; N = 10) was 0.28 g, the Shoot fresh weight ([14]; N = 10) was 2.46 g and the “The unifoliate leaf length” value ([14]; N = 10) was 4.54 cm. For the same compound, the Total leaf area ([14]; N = 10) was 55.96 cm^2, the Total root length ([14]; N = 10) was 2047.40 cm and the “activities of nitrate reductase (NR)” value [15] was “decrease in activities”. The TBARS level [16] was “increase in TBARS level”, the “Phytohormone content: ABA” value [17] was 2742 ng/g FW and the “Phytohormone content: Cytokinin (Zeatin+iPAs)” value [17] was 0.75 ng/g FW. The “Phytohormone content: GA1” value [17] was 625 ng/g FW, the “Phytohormone content: IAA” value [17] was 45 ng/g FW and the Plant height [18] was 42.70 cm. For the same compound, the Root dry weight [18] was 0.35 g, the “The 4th leaf area” value [18] was 89.45 cm^2 and the Total root length [18] was 1405.69 cm. It also gave a shoot dry weight [18] of 1.30 g.
